Our source for the IC50 values is US20260232658A1, “AZETIDINYL BENZOXAZOLE COMPOUNDS AND THEIR USE AS MER AND AXL INHIBITORS” (DONG-A ST CO., LTD., priority 2022, published 2026).

The target of one assay is T1, human AXL (473-end) (Homo sapiens, UniProt P30530).
T1 construct: human AXL (473-end); purchased SignalChem, Canada
T1 sequence (P30530 473-894 limits assumed): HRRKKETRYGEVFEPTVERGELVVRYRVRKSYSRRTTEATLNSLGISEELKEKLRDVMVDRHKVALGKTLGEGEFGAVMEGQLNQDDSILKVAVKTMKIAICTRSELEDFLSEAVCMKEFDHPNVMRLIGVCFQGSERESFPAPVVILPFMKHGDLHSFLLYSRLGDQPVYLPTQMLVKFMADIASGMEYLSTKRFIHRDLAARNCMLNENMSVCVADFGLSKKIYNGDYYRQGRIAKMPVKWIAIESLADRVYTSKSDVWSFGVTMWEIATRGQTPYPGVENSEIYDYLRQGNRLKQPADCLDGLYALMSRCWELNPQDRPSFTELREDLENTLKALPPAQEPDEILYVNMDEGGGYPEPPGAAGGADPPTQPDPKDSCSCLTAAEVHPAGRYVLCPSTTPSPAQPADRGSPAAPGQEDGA
Kind of assay: HTRF kinase activity biochemical assay, AXL.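 Also: phosphorylation of a biotinylated tyrosine kinase substrate detected via Eu3+-cryptate anti-TK antibody and streptavidin-XL665, fluorescence read after a 1 h incubation at room temperature.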 Conditions: recombinant kinase, 10 uM ATP, 30 minutes pre-incubation; read-out: HTRF AXL IC50. (TR-FRET usually uses a lanthanide donor and a delayed reading to cut background.)

Another assay deals with T2, TYRO3 (455-end) (Homo sapiens, UniProt Q06418).
T2 construct: TYRO3 (455-end); purchased SignalChem, Canada
T2 sequence (Q06418 455-890 limits assumed): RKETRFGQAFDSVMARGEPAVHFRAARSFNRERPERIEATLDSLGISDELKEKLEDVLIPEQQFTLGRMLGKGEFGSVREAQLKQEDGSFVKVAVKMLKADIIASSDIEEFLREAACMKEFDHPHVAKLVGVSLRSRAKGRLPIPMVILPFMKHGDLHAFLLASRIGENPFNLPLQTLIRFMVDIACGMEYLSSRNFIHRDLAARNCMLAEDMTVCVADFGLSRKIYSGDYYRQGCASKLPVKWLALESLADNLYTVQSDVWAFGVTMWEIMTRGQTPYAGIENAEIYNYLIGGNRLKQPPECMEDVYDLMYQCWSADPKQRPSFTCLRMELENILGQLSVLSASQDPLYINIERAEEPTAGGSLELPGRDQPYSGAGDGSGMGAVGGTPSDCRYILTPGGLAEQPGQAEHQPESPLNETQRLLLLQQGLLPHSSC
Kind of assay: HTRF kinase activity biochemical assay, TYRO3.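 Also: biotinylated tyrosine kinase substrate phosphorylation detected via streptavidin-XL665 and Eu3+-cryptate anti-phospho antibody time-resolved fluorescence, read after 1 h detection at room temperature, 384-well format.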 The settings on record: recombinant kinase, 10 uM ATP, 30 minutes pre-incubation; read-out: HTRF TYRO IC50.

In another assay the target is T3, human MER (528-end) (Homo sapiens, UniProt Q12866).
T3 construct: human MER (528-end); purchased Carnabio, Japan
T3 sequence (Q12866 528-999 limits assumed): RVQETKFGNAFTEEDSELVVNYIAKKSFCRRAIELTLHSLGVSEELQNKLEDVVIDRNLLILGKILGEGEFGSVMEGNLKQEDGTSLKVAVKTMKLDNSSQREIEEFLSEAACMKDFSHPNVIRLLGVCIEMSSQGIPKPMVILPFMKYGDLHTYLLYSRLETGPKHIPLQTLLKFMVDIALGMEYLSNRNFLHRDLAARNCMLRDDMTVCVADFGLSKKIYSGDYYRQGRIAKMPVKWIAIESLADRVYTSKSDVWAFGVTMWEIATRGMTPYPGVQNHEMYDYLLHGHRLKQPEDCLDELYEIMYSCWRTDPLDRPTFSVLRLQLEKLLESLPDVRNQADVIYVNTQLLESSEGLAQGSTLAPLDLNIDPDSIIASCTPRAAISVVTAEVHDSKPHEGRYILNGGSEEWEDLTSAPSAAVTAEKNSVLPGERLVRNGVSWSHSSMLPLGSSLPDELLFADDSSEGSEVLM
Kind of assay: HTRF kinase activity biochemical assay, MER.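 Also: phosphorylation of a biotin-tagged tyrosine kinase substrate detected by Eu3+-cryptate antibody and streptavidin-XL665 time-resolved fluorescence, read after 1 h at room temperature.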 Conditions: recombinant kinase, 10 uM ATP, 30 minutes pre-incubation; read-out: HTRF MERTK IC50.

`NC(=O)c1nc(C2CN(c3nc4ccc(F)cc4o3)C2)cnc1Nc1cnn(C2CCOCC2)c1` [Example 27, 6-[1-(6-fluoro-1,3-benzoxazol-2-yl)azetidin-3-yl]-3-{[1-(oxan-4-yl)-1H-pyrazol-4-yl]amino}pyrazine-2-carboxamide]: the IC50 (as a rule, the concentration that gives 50% inhibition) at human AXL (473-end) amounted to 3 nM; at TYRO3 (455-end), 82 nM; at human MER (528-end), 1 nM.

As to `COCCCc1ccc2nc(N3CC(c4cnc(Nc5cnn(C)c5)c(C(N)=O)n4)C3)oc2c1` [Example 33, 6-{1-[6-(3-methoxypropyl)-1,3-benzoxazol-2-yl]azetidin-3-yl}-3-[(1-methyl-1H-pyrazol-4-yl)amino]pyrazine-2-carboxamide], the half-inhibitory concentration (IC50) on human AXL (473-end) is 2 nM; on TYRO3 (455-end), 130 nM; on human MER (528-end) it was 1 nM.

As to `C=CCOP(=O)(OCC=C)OC(C)(C)CCOc1ccc2nc(N3CC(c4cnc(Nc5cnn(C)c5)c(C(N)=O)n4)C3)oc2c1` [Example 77A, 4-{[2-(3-f{6-carbamoyl-5-[(1-methyl-1H-pyrazol-4-yl)amino]pyrazin-2-yl}azetidin-1-yl)-1,3-benzoxazol-6-yl]oxy}-2-methylbutan-2-yl diprop-2-en-1-yl phosphate], the IC50 was determined as 6 nM at human AXL (473-end), 250 nM on TYRO3 (455-end) and 2 nM on human MER (528-end).

Turning to `Cn1cc(Nc2ncc(C3CN(c4nc5ccc(OCC(N)=O)cc5o4)C3)nc2C(N)=O)cn1` [Example 37, 6-{1-[6-(2-amino-2-oxoethoxy)-1,3-benzoxazol-2-yl]azetidin-3-yl}-3-[(1-methyl-1H-pyrazol-4-yl)amino]pyrazine-2-carboxamide], the IC50 came out at 29 nM at human AXL (473-end), 2130 nM on TYRO3 (455-end) and 10 nM at human MER (528-end).

On to `Cn1cc(Nc2ncc(C3CN(c4nc5ccc(OCc6cn[nH]c6)cc5o4)C3)nc2C(N)=O)cn1` [Example 93, 3-[(1-methyl-1H-pyrazol-4-yl)amino]-6-(1-{6-[(1H-pyrazol-4-yl)methoxy]-1,3-benzoxazol-2-yl}azetidin-3-yl)pyrazine-2-carboxamide], for which the IC50 on human AXL (473-end) is 2 nM; at TYRO3 (455-end), 44 nM; on human MER (528-end), under 1 nM.

Consider `Cn1cc(Nc2ccc(C3CN(c4nc5ccc(OCC(C)(C)OP(=O)(O)O)cc5o4)C3)nc2C(N)=O)cn1` [Example 106, 1-{[2-(3-{6-carbamoyl-5-[(1-methyl-1H-pyrazol-4-yl)amino]pyridin-2-yl}azetidin-1-yl)-1,3-benzoxazol-6-yl]oxy}-2-methylpropan-2-yl dihydrogen phosphate], for which the IC50 on human AXL (473-end) was found to be 6 nM; on TYRO3 (455-end), 1070 nM; on human MER (528-end), 1.8 nM.

Consider `Cn1cc(Nc2ncc(C3CN(c4nc5ccc(-c6ccc(OCCO)cc6)cc5o4)C3)nc2C(N)=O)cn1` [Example 89, 6-(1-{6-[4-(2-hydroxyethoxy)phenyl]-1,3-benzoxazol-2-yl}azetidin-3-yl)-3-[(1-methyl-1H-pyrazol-4-yl)amino]pyrazine-2-carboxamide], for which the results for the IC50 at human AXL (473-end), on TYRO3 (455-end) and at human MER (528-end) were 6 nM, 260 nM and 1 nM, respectively.

As for `Cn1cc(Nc2ccc(C3CN(c4nc5ccc(O)cc5o4)C3)nc2C(N)=O)cn1` [Example 84A, 6-[1-(6-hydroxy-1,3-benzoxazol-2-yl)azetidin-3-yl]-3-[(1-methyl-1H-pyrazol-4-yl)amino]pyridine-2-carboxamide], the IC50 was 33 nM on human AXL (473-end), 2070 nM on TYRO3 (455-end) and 14 nM at human MER (528-end).

With `CCc1ccc2nc(N3CC(c4cnc(Nc5cnn(C)c5)c(C(N)=O)n4)C3)oc2c1` [Example 5, 6-[1-(6-ethyl-1,3-benzoxazol-2-yl)azetidin-3-yl]-3-[(1-methyl-1H-pyrazol-4-yl)amino]pyrazine-2-carboxamide], the figures for the IC50 on human AXL (473-end), at TYRO3 (455-end) and at human MER (528-end) were 2 nM, 83 nM and under 1 nM, respectively.

`Cn1cc(Nc2ncc(C3CN(c4nc5ccc(OCC(=O)C6CC6)cc5o4)C3)nc2C(N)=O)cn1` [Example 87, 6-{1-[6-(2-cyclopropyl-2-oxoethoxy)-1,3-benzoxazol-2-yl]azetidin-3-yl}-3-[(1-methyl-1H-pyrazol-4-yl)amino]pyrazine-2-carboxamide]: the figures for the IC50 on human AXL (473-end), on TYRO3 (455-end) and on human MER (528-end) were 5 nM, 330 nM and 1 nM, respectively.

Regarding `Cn1cc(Nc2ncc(C3CN(c4nc5ccc(CC(CO)CO)cc5o4)C3)nc2C(N)=O)cn1` [Example 25, 6-(1-{6-[3-hydroxy-2-(hydroxymethyl)propyl]-1,3-benzoxazol-2-yl}azetidin-3-yl)-3-[(1-methyl-1H-pyrazol-4-yl)amino]pyrazine-2-carboxamide], the IC50 on human AXL (473-end) was 10 nM; at TYRO3 (455-end) it was 1100 nM; at human MER (528-end) it was 7 nM.

Consider `Cn1cc(Nc2ncc(C3CN(c4nc5ccc(CC(=O)N6CCC[C@@H]6C(F)(F)F)cc5o4)C3)nc2C(N)=O)cn1` [Example 81, 3-[(1-methyl-1H-pyrazol-4-yl)amino]-6-[1-(6-{2-oxo-2-[(2R)-2-(trifluoromethyl)pyrrolidin-1-yl]ethyl}-1,3-benzoxazol-2-yl)azetidin-3-yl]pyrazine-2-carboxamide], for which the values for the IC50 on human AXL (473-end), at TYRO3 (455-end) and at human MER (528-end) were 3 nM, 1070 nM and 1 nM, respectively.

Regarding `CC1(C)OCC(Cn2cc(Nc3ncc(C4CN(c5nc6ccc(F)cc6o5)C4)nc3C(N)=O)cn2)O1` (stereo not drawn) [Example 36D, 3-({1-[(2,2-dimethyl-1,3-dioxolan-4-yl)methyl]-1H-pyrazol-4-yl}amino)-6-[1-(6-fluoro-1,3-benzoxazol-2-yl)azetidin-3-yl]pyrazine-2-carboxamide], the figures for the IC50 on human AXL (473-end), on TYRO3 (455-end) and at human MER (528-end) were 10 nM, 430 nM and 3 nM, respectively.

In the case of `Cn1cc(Nc2ncc(C3CN(c4nc5ccc(Br)cc5o4)C3)nc2C(N)=O)cn1` [Example 6A, 6-[1-(6-bromo-1,3-benzoxazol-2-yl)azetidin-3-yl]-3-[(1-methyl-1H-pyrazol-4-yl)amino]pyrazine-2-carboxamide], the IC50 at human AXL (473-end) was 4 nM; on TYRO3 (455-end) it was 60 nM; on human MER (528-end) it was under 1 nM.

With `Cn1cc(Nc2ncc(C3CN(c4nc5ccc(OCC(=O)N6CCCC6)cc5o4)C3)nc2C(N)=O)cn1` [Example 49, 3-[(1-methyl-1H-pyrazol-4-yl)amino]-6-(1-{6-[2-oxo-2-(pyrrolidin-1-yl)ethoxy]-1,3-benzoxazol-2-yl}azetidin-3-yl)pyrazine-2-carboxamide], the figures for the IC50 at human AXL (473-end), on TYRO3 (455-end) and on human MER (528-end) were 11 nM, 2030 nM and 4 nM, respectively.

For `Cc1nnc(COc2ccc3nc(N4CC(c5cnc(Nc6cnn(C)c6)c(C(N)=O)n5)C4)oc3c2)o1` [Example 86, 6-(1-{6-[(5-methyl-1,3,4-oxadiazol-2-yl)methoxy]-1,3-benzoxazol-2-yl}azetidin-3-yl)-3-[(1-methyl-1H-pyrazol-4-yl)amino]pyrazine-2-carboxamide], the half-inhibitory concentration (IC50) worked out at 11 nM at human AXL (473-end), 63 nM at TYRO3 (455-end) and 5 nM on human MER (528-end).

Consider `Cc1ncc(-c2ccc3nc(N4CC(c5cnc(Nc6cnn(C)c6)c(C(N)=O)n5)C4)oc3c2)s1` [Example 99, 3-[(1-methyl-1H-pyrazol-4-yl)amino]-6-{1-[6-(2-methyl-1,3-thiazol-5-yl)-1,3-benzoxazol-2-yl]azetidin-3-yl}pyrazine-2-carboxamide], for which the half-maximal inhibitory concentration (IC50) on human AXL (473-end) is 1.6 nM; on TYRO3 (455-end) it was 24 nM; on human MER (528-end) it was under 1 nM.

For the compound `Cn1cc(Nc2ncc(C3CN(c4nc5ccc(OCCCc6ccccc6)cc5o4)C3)nc2C(N)=O)cn1` [Example 60, 3-[(1-methyl-1H-pyrazol-4-yl)amino]-6-{1-[6-(3-phenylpropoxy)-1,3-benzoxazol-2-yl]azetidin-3-yl}pyrazine-2-carboxamide], the IC50 is 1 nM on human AXL (473-end), 100 nM at TYRO3 (455-end) and under 1 nM at human MER (528-end).
